Earlier results as cited in US20220000797A1, “CLEAR PROPOFOL INJECTION AND PREPARATION METHOD THEREFOR” ((BIKA BIOTECHNOLOGY (GUANGZHOU) CO., LTD), priority 2018, published 2022).
Where two headings read alike, the source gives them in different places.

For `O=C([O-])O.[Na+]` [sodium bicarbonate], the injection pain (final concentration of sodium bicarbonate approaches 1.4%) is given as “can reduce injection pain” and the injection pain (low concentration of sodium bicarbonate (0.25%)) is given as “cannot reduce injection pain”.
